Some test systems named below: NCI-H460; TK-10; NCI-H23; HT-29; 786-0; OVCAR-4; UO-31; SF-295; SNB-78; DMS-114; SR; HCT-116; UACC-62; CAKI-1; Malme-3M; HOP-62; A549.
Holding throughout (test): NCI-60 cell line screen, 48 h

Molecules are shown by their SMILES.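 Test compounds were applied to cells in 96-well plates for 48 hours at 5 doses. GI50 is the concentration that inhibits growth by half.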 Active and inactive are the calls of the source. Cut-off read from the data, not from the text of the source: active = GI50 up to about 1.1 µM and inactive = higher. A value given as a limit tells only on which side of the number the result lay.

For `CC(=O)c1sc(-c2nc(C)c(C(=O)/C=C\c3ccc(/C=C\C(=O)c4sc(-c5nc(C)c(C(C)=O)s5)nc4C)cc3)s2)nc1C`, the GI50 in the assay with NCI-H460, in the assay on TK-10, with NCI-H23, in the assay with HT-29, in the assay on 786-0 and with OVCAR-4 was > 100 µM (inactive) in each case. Also, the GI50 with UO-31, with SF-295, in the assay on SNB-78, with DMS-114, in the assay with SR and in the assay with HCT-116 was > 100 µM (inactive) throughout. The GI50 in the assay with UACC-62 is 85.9 µM (inactive); in the assay with CAKI-1 it was > 100 µM (inactive); in the assay with Malme-3M, > 100 µM (inactive); with HOP-62, > 100 µM (inactive); in the assay on A549 it was > 100 µM (inactive).

With `CCCCCCCCCCC(=O)CC(=O)c1c(O)cccc1O`, the GI50 with NCI-H460 is 34.7 µM (inactive); in the assay on TK-10 it was 46.2 µM (inactive); with NCI-H23, 26.9 µM (inactive); with HT-29, 30.7 µM (inactive); in the assay on 786-0, 36.1 µM (inactive); in the assay with OVCAR-4, 43.1 µM (inactive). For the same compound, the GI50 in the assay on UO-31 is 29 µM (inactive); with SF-295, 36.6 µM (inactive); with SNB-78, 33.5 µM (inactive); with DMS-114, 26.1 µM (inactive); with SR, 33.6 µM (inactive); in the assay with HCT-116, 19.5 µM (inactive). Also, the GI50 is 41.9 µM (inactive) in the assay with UACC-62; 41 µM (inactive) in the assay on CAKI-1; 35.9 µM (inactive) with Malme-3M; 24.1 µM (inactive) in the assay with HOP-62; 32.4 µM (inactive) with A549.

In the case of `CCCCn1c2ccccc2c2ccc3c(c21)C(=O)C=CC3=O`, the GI50 in the assay on NCI-H460 was > 100 µM (inactive); with TK-10 it was > 100 µM (inactive); in the assay on NCI-H23, > 100 µM (inactive); in the assay on HT-29 it was 0.991 µM (active); with 786-0, > 100 µM (inactive); with OVCAR-4, > 100 µM (inactive). Also, the GI50 with UO-31 is 62.2 µM (inactive); with SF-295 it was > 100 µM (inactive); with SNB-78, > 100 µM (inactive); in the assay on DMS-114, > 100 µM (inactive); with SR, > 100 µM (inactive); with HCT-116, > 100 µM (inactive). Besides, the GI50 in the assay with UACC-62, in the assay on CAKI-1, in the assay on Malme-3M, with HOP-62 and in the assay with A549 was > 100 µM (inactive) throughout.

For the compound `O=C1c2ccccc2C(=O)N1/N=C\c1ccc(Br)cc1`, the GI50 in the assay with NCI-H460, with TK-10, in the assay on NCI-H23, with HT-29, in the assay on 786-0 and with OVCAR-4 was > 10 µM (inactive) throughout. The GI50 in the assay on UO-31, with SF-295, with SNB-78, with DMS-114, with SR and with HCT-116 was > 10 µM (inactive) each time. For the same compound, the GI50 in the assay on UACC-62, in the assay on CAKI-1, with Malme-3M, in the assay with HOP-62 and in the assay on A549 was > 10 µM (inactive) throughout.

Consider `O=C(CCN1CCCC1)CC(c1ccccc1)c1c(O)c2ccccc2oc1=O` (stereo not given), for which the GI50 with NCI-H460, with TK-10, in the assay on NCI-H23, in the assay with HT-29, in the assay with 786-0 and with OVCAR-4 was > 100 µM (inactive) throughout. Besides, the GI50 in the assay with UO-31, in the assay on SF-295, in the assay with SNB-78, with DMS-114, with SR and in the assay on HCT-116 was > 100 µM (inactive) throughout. Also, the GI50 in the assay on UACC-62, with Malme-3M, with HOP-62 and in the assay with A549 was > 100 µM (inactive) each time.

Turning to `O=C(O)CCC(N/C=C1/N=C(c2ccccc2)OC1=O)C(=O)O` (stereo not given), the GI50 with NCI-H460, with TK-10, with NCI-H23, with HT-29, in the assay with 786-0 and with OVCAR-4 was > 100 µM (inactive) each time. Moreover, the GI50 in the assay on UO-31, with SF-295, in the assay with SNB-78, in the assay with DMS-114, with SR and in the assay on HCT-116 was > 100 µM (inactive) each time. The GI50 in the assay with UACC-62, with CAKI-1, with Malme-3M, in the assay on HOP-62 and with A549 was > 100 µM (inactive) throughout.

On to `CSC(=S)c1ccc(C(=S)SC)cc1`, for which the GI50 in the assay with NCI-H460, with TK-10, in the assay with NCI-H23, in the assay with HT-29, in the assay on 786-0 and in the assay on OVCAR-4 was > 100 µM (inactive) each time. Moreover, the GI50 in the assay with UO-31, in the assay with SF-295, in the assay on SNB-78, in the assay with DMS-114, with SR and in the assay with HCT-116 was > 100 µM (inactive) in each case. For the same compound, the GI50 with UACC-62, in the assay with CAKI-1, in the assay with Malme-3M, in the assay with HOP-62 and with A549 was > 100 µM (inactive) in each case.

Take `Cc1ccccc1/C=N/C12CC3CC(CC(C3)C1)C2`: the GI50 in the assay on NCI-H460, in the assay with TK-10, in the assay with NCI-H23, with HT-29, in the assay with 786-0 and with OVCAR-4 was > 100 µM (inactive) each time. Also, the GI50 with UO-31 was > 100 µM (inactive); in the assay with SF-295 it was 49.3 µM (inactive); in the assay on SNB-78 it was > 100 µM (inactive); with DMS-114, > 100 µM (inactive); with HCT-116, > 100 µM (inactive); in the assay on UACC-62, > 100 µM (inactive). Besides, the GI50 with CAKI-1, in the assay with Malme-3M, with HOP-62 and in the assay on A549 was > 100 µM (inactive) in each case.

For `O=C1C[C@@H]2[C@@H](CCC23CC3)N1`, the GI50 with NCI-H460, with TK-10, with NCI-H23, in the assay on HT-29, with 786-0 and with OVCAR-4 was > 100 µM (inactive) throughout. Moreover, the GI50 with UO-31, in the assay with SF-295, in the assay on SNB-78, in the assay on DMS-114, with HCT-116 and in the assay with UACC-62 was > 100 µM (inactive) throughout. In addition, the GI50 with CAKI-1, with Malme-3M, in the assay with HOP-62 and in the assay on A549 was > 100 µM (inactive) each time.

Take `Cn1c(N)nc(=O)c2c1N(C1OC(CO)C(O)C1O)CN2Cc1ccccc1` (stereo not given): the GI50 with NCI-H460, with TK-10, in the assay with NCI-H23, in the assay on HT-29, with 786-0 and in the assay on OVCAR-4 was > 100 µM (inactive) each time. Also, the GI50 with UO-31, in the assay with SF-295, in the assay with SNB-78, with DMS-114, with SR and with HCT-116 was > 100 µM (inactive) each time. Also, the GI50 in the assay with UACC-62, in the assay on CAKI-1, with Malme-3M, in the assay on HOP-62 and in the assay with A549 was > 100 µM (inactive) in each case.

Take `O=C(O)OC12CCCCCC1C(=O)C1CCCCC12` (stereo not given): the GI50 in the assay on NCI-H460 is 77.4 µM (inactive); with TK-10, > 100 µM (inactive); in the assay on NCI-H23, > 100 µM (inactive); in the assay on HT-29, > 100 µM (inactive); in the assay on 786-0, > 100 µM (inactive); in the assay with OVCAR-4, > 100 µM (inactive). Moreover, the GI50 in the assay with UO-31 is > 100 µM (inactive); in the assay on SF-295, > 100 µM (inactive); in the assay on SNB-78, > 100 µM (inactive); in the assay with DMS-114, 82 µM (inactive); in the assay with SR it was 47 µM (inactive); in the assay on HCT-116, 57.4 µM (inactive). Also, the GI50 with UACC-62 is 71.3 µM (inactive); in the assay on Malme-3M it was > 100 µM (inactive); in the assay with HOP-62, > 100 µM (inactive); in the assay with A549 it was > 100 µM (inactive).

As for `COC(=O)[C@@]12C(=O)CCC(=O)C1C1C(=CC2C)O[C@@H]2OC3(CCCCC3)O[C@H]12` (stereo not given in full), the GI50 was > 100 µM (inactive) in the assay on NCI-H460; > 100 µM (inactive) with TK-10; > 72.4 µM (inactive) in the assay on NCI-H23; 47.6 µM (inactive) in the assay with HT-29; > 83.6 µM (inactive) with 786-0; 59.2 µM (inactive) in the assay on OVCAR-4. Also, the GI50 is > 100 µM (inactive) in the assay on UO-31; > 100 µM (inactive) with SF-295; > 100 µM (inactive) in the assay with SNB-78; 48 µM (inactive) in the assay with DMS-114; 25.9 µM (inactive) with SR; 43.8 µM (inactive) with HCT-116. Also, the GI50 in the assay with UACC-62 was > 88.7 µM (inactive); with CAKI-1, > 90.4 µM (inactive); with Malme-3M, > 100 µM (inactive); with HOP-62, > 100 µM (inactive); in the assay on A549 it was > 100 µM (inactive).

Source of the values: ChEMBL document CHEMBL1201862, “PubChem BioAssay data set” (2004).
